Assay results from patent US20150152080A1, “BENZOTHIOPHENE SULFONAMIDES DERIVATIVES AS CHEMOKINE RECEPTOR MODULATORS” (Allergan, Inc., priority 2013, published 2015).

Molecular target: T1, CCR2 (Homo sapiens, UniProt P41597)
T1 construct: expressed in transfected cells; geneticin and hygromycin selection
Test: Calcium activity assay on FLIPR Tetra in HEK-Gqi5 cells stably expressing CCR2
Format: cell-based
Settings: for Emax: read-out: CCR2 ANTAGONISM Rel. Eff. (%)
Procedure: HEK-Gqi5 cells stably expressing CCR2 were cultured in DMEM high glucose, 10% FBS, 1% PSA, 400 μg/ml geneticin and 50 μg/ml hygromycin. Appropriate positive control chemokines (MCP-1, MIP1A or RANTES) was used as the positive control agonist for screening compound-induced calcium activity assayed on the FLIPR^Tetra. The drug plates were prepared in 384-well microplates using the EP3 and the MultiPROBE robotic liquid handling systems. Compounds were synthesized and tested for CCR2 activity.

T1 sequence (P41597 whole entry, species assumed): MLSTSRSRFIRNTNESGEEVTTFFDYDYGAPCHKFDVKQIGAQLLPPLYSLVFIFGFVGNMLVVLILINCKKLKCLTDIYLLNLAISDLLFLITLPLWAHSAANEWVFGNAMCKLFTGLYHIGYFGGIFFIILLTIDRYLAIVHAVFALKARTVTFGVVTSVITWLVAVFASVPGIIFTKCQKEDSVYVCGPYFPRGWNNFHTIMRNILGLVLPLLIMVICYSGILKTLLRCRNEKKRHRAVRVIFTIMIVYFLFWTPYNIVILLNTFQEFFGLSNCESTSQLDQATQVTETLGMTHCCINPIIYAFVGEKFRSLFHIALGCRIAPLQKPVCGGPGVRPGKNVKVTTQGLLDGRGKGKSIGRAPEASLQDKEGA

SMILES	IC50 [nM]	Emax [%]
COC(=O)c1ccccc1CSc1ccc(F)cc1NS(=O)(=O)c1cc2ccccc2s1 [Compound 13, methyl 2-[({2-[(1-benzothiophen-2-ylsulfonyl)amino]-4-fluorophenyl}sulfanyl)methyl]benzoate]	268	68
COC(=O)c1ccccc1CSc1ccc(Cl)cc1NS(=O)(=O)c1cc2ccccc2s1 [Compound 1]	198	86
O=S(=O)(Nc1cccnc1[S+]([O-])Cc1ccccc1)c1cc2ccccc2s1 (stereo not shown) [Compound 12, N-[2-(Benzylsulfinyl)pyridin-3-yl]-1-benzothiophene-2-sulfonamide]	122	72
O=C(O)c1ccccc1CSc1ccc(F)cc1NS(=O)(=O)c1cc2ccccc2s1 [Compound 14, 2-[({2-[(1-benzothiophen-2-ylsulfonyl)amino]-4-fluorophenyl}sulfanyl)methyl]benzoic acid]	< 10	96
Cc1ccc(NS(=O)(=O)c2cc3ccccc3s2)c(SCc2ccccc2C(=O)O)c1 [Compound 9, 2-[({2-[(1-Benzothiophen-2-ylsulfonyl)amino]-5-methylphenyl}sulfanyl)methyl]benzoic acid]	114	88
O=S(=O)(Nc1cccnc1SCc1ccccc1)c1cc2ccccc2s1 [Compound 10, N-[2-(Benzylsulfanyl)pyridin-3-yl]-1-benzothiophene-2-sulfonamide]	2250	44
O=S(=O)(Cc1ccccc1)c1ncccc1NS(=O)(=O)c1cc2ccccc2s1 [Compound 11, N-[2-(Benzylsulfonyl)pyridin-3-yl]-1-benzothiophene-2-sulfonamide]	85	93
Cc1ccc(SCc2ccccc2C(=O)O)c(NS(=O)(=O)c2cc3ccccc3s2)c1 [Compound 4, 2-[({2-[(1-Benzothiophen-2-ylsulfonyl)amino]-4-methylphenyl}sulfanyl)methyl]benzoic acid]		99
Nc1cccc(CS(=O)(=O)c2ccc(Cl)cc2NS(=O)(=O)c2cc3ccccc3s2)c1 [Compound 7, N-{2-[(3-Aminobenzyl)sulfonyl]-5-chlorophenyl}-1-benzothiophene-2-sulfonamide]	77	98
O=C(O)c1ccccc1CSc1ccc(Cl)cc1NS(=O)(=O)c1cc2ccccc2s1 [Compound 2, 2-[({2-[(1-Benzothiophen-2-ylsulfonyl)amino]-4-chlorophenyl}sulfanyl)methyl]benzoic acid]	4	100
